The values that follow come from BindingDB's records for doi:10.1021/jm051222g (Uppsala University, 2006).

The assay addresses Type-2 angiotensin II receptor (Sus scrofa). As to the kind of experiment: Displacement of [125I]Ang2 from AT2 receptor in pig uterus myometrium.

Broadly, the Ki is the equilibrium dissociation constant of an inhibitor or competing ligand from its target. High values mean a looser hold on the target, low ones a stronger hold on the target. On to `CC[C@H](C)[C@@H]1Nc2c(Cc3ccc(O)cc3)cc(NC(=O)[C@H](CCCN=C(N)N)NC(=O)[C@@H](N)CC(=O)O)cc2CN(CC(=O)N[C@@H](Cc2cnc[nH]2)C(=O)N2CCC[C@H]2C(=O)N[C@@H](Cc2ccccc2)C(=O)O)C1=O` [(3S)-3-amino-3-{[(1S)-1-{[(2S)-2-[(2S)-butan-2-yl]-4-({[(2S)-1-[(2S)-2-{[(1S)-1-carboxy-2-phenylethyl]carbamoyl}pyrrolidin-1-yl]-3-(1H-imidazol-4-yl)-1-oxopropan-2-yl]carbamoyl}methyl)-9-[(4-hydroxyphenyl)methyl]-3-oxo-2,3,4,5-tetrahydro-1H-1,4-benzodiazepin-7-yl]carbamoyl}-4-[(diaminomethylidene)amino]butyl]carbamoyl}propanoic acid], for which the Ki amounted to 4.7 nM.
`CC[C@H](C)[C@@H]1Nc2c(Cc3ccc(O)cc3)cc(NC(=O)[C@H](CCCN=C(N)N)NC(=O)[C@@H](N)CC(=O)O)cc2CN(CC(=O)N2CCC[C@H]2C(=O)N[C@@H](Cc2ccccc2)C(=O)O)C1=O` [(3S)-3-amino-3-{[(1S)-1-{[(2S)-2-[(2S)-butan-2-yl]-4-{2-[(2S)-2-{[(1S)-1-carboxy-2-phenylethyl]carbamoyl}pyrrolidin-1-yl]-2-oxoethyl}-9-[(4-hydroxyphenyl)methyl]-3-oxo-2,3,4,5-tetrahydro-1H-1,4-benzodiazepin-7-yl]carbamoyl}-4-[(diaminomethylidene)amino]butyl]carbamoyl}propanoic acid] came in with a Ki of 53.1 nM.
